{
  "source": "patent US20250313862A1",
  "about": "“INHIBITION OF GENOTOXIC STRESS TO IMPROVE T CELL ENGINEERING” (GENENTECH, INC., priority 2022, published 2025)",
  "key": {"[1]": {"tested_on": "human primary CD8+ T cells", "experiment": "T cell viability 48 h post transfection (NucleoCounter NC-200)", "type": "cell-based", "settings": "for culture viability improvement compared to the untreated control group (CTR): 6 h pretreatment prior to transfection, 48 h-post transfection, on average (FIG. 6A)", "procedure": "(§1) Peripheral blood mononuclear cells (PBMCs) were isolated from human cryopreserved leukopak using Ficoll gradient centrifugation ([…], 25 min). All samples were obtained from healthy donors genotyped with HLA A*02:01 MHC class I complex. Then CD8+ T cells were isolated using the Miltenyi AutoMACS cell separator according to the manufacturer's protocol. Isolated CD8+ T cells were then mixed with Miltenyi T cell TransACT reagent (1:100) (Catalog #130-111-160), 25 ng/mL IL-7 (Catalog #130-095-367), and 50 ng/mL IL-15 (Catalog #130-095-760) in Fuji Prime-XV medium (IrvineScientific Catalog #91154) for 48 h for activation.\n(§2) Cells were electroporated with the 4D-Nucleofector System (Lonza) according to the manufacturer's protocol. After activation and inhibitor treatment, 10×10^6 (or 10 million) CD8+ T cells were washed and resuspended with Lonza P3 primary cell nucleofector solution (Catalog #V4XP-3024) and then mixed with pre-mixed RNP and DNA plasmid before transferring to Lonza 100-uL cuvette. After electroporation, 400 ul of FUJI Prime-XV medium was added to the cuvette and incubated for 15 min before seeding cells in culture flask. Pulse code used in this manuscript is EH115 for all circumstances.\n(§3) All inhibitors were purchased from invivogen. Unless stated otherwise, cells were cultured with Fuji Prime-XV medium with 25 ng/ml IL-7 and 50 ng/ml IL-15 (Complete medium). After electroporation, T cells were carefully transferred to 24-well gREX (Wilsonwolf, Catalog: 80192M) at 1-2 million cells/cm^2 seeding density. 8 ml of complete medium were added per well and 50% of the medium was exchanged 6 days later. Cells were incubated at 37° C. and 5% CO2. The NucleoCounter NC-200 automated cell counter with the Via2-Casette were used in this study for cell counting and viability analysis.\n(§4) Two days post activation, CD8+ T cells were washed and resuspended with FUJI Prime-XV complete medium containing inhibitors at the indicated concentrations for 6 h. After treatment, cells were washed and resuspended in Lonza P3 buffer prior to electroporation. Post transfection, T cells were cultured with FUJI Prime-XV complete medium without inhibitor."}, "[2]": {"tested_on": "human primary CD8+ T cells", "experiment": "T cell expansion fold of final cell product, 15-day T cell engineering process", "type": "cell-based", "settings": "for cell expansion of final T cell product: day 15, average", "procedure": "as §1, §2, §3, §4"}, "[3]": {"tested_on": "human primary CD8+ T cells", "experiment": "Total edited cell (TEC) number in final drug product", "type": "cell-based", "settings": "for TEC number: seeding 2 million cells, day 15, on average (FIG. 6C)", "excerpt": "The total edited cell number (TECs) in the final drug product is arguably the most important metric for the adoptive cell transfer (ACT) and this, among a few other conditions, is considered one of the most important criteria for cell therapy purpose since it is expected to translate to the therapeutic impact in the clinic. Using the total cell number of the final cell product on day 15 multiplied by the percentage of knock-in, we get the TECs that are representative of our T cell engineering and culture output. With a starting seeding density of 2 million cells and without inhibitor treatment, as shown for the control conditions (CTR), the TEC numbers were approximately 5.24 million on average (FIG. 6C). However, when T cells were pre-treated with the indicated inhibitors, a significant increase in the output of TECs in all donors were observed (FIGS. 4C, 4F, 4I, FIGS. 5C, 5F), which was consistent with the cell expansion data.\nas §2, §3\n(§5) Dextramer antibodies for knock-in analysis were purchased from Immudex (Catalog: WB3469-PE, WT1) and used following manufacturer's protocol. Surface staining, CFSE staining, 7-AAD/annexin V staining, and intracellular staining were performed as previously described. Samples were analyzed using the BD FACSLyric flow cytometer (BD Biosciences) and FlowJo v10 software. For proliferation and cell killing assay, data were corrected by a negative control or target cell-only control.\nas §4"}, "[4]": {"tested_on": "human primary CD8+ T cells", "experiment": "Knock-in/knock-out efficiency by flow cytometry (MHC-peptide dextramer and TCR staining)", "type": "cell-based", "procedure": "as §2, §5, §4"}, "IRF3": {"tested_on": "IRF3", "experiment": "Western blot analysis of IRF3 phosphorylation post transfection", "type": "cell-based, human", "settings": "pre-treatment at both medium and high concentrations (FIG. 8A)", "procedure": "(§6) T cell pellets were collected, washed and stored as frozen pellets in −80° C. until use. Cell pellet processing, western blot experiments and data analysis were performed as previously described (Tang, J B C, 2020).\nas §4"}, "TBK1 [5]": {"tested_on": "TBK1", "experiment": "Western blot analysis of TBK1 phosphorylation post transfection", "type": "cell-based, human", "settings": "post BX795 pre-treatment (FIG. 8A)", "procedure": "as §6, §4"}, "[6]": {"tested_on": "type 1 interferons (IFNa, IFNB) and proinflammatory cytokine (IL-6)", "experiment": "Cytokine expression by qPCR 6 h post transfection", "type": "cell-based, human", "procedure": "(§7) RNeasy Mini Kit (Cat. #74106) was purchased from Qiagen. TaqMan RNA-to-CT 1-Step Kit (Cat. #4392938) and Taqman primer-probe assays with reporter dye FAM and MGB quenchers were purchased from Thermo Fisher (assay information listed in Table 4). After RNA isolation, 2 ng RNA was mixed with Taqman primer-probe mix, TaqMan RNA-to-CT 1-Step master mix, and RT enzyme mix in a 10 uL qPCR system according to the manufacturer's protocol. Reaction readings were measured using QuantStudio 6 Flex machine and data was analyzed using QuantStudio Real-Time PCR software v1.2. PCR cycling conditions were 50° C. for 30 min, 95° C. for 10 min, 40× cycles of 95° C. for 15 s, 60° C. for 1 min. All data points were collected in triplicates, using RNA18S as internal control (sample ID: #Hs03928990_g1).\nas §4"}, "cGAS-STING pathway": {"tested_on": "cGAS-STING pathway", "experiment": "cGAS-STING pathway activation in T cells (western blot and qPCR)", "type": "cell-based, human", "settings": "pretreatment prior to transfection (FIG. 8A); hydrochloride", "procedure": "as §6, §7, §4"}, "[7]": {"tested_on": "human primary CD8+ T cells", "experiment": "T cell phenotype of final T cell product by flow cytometry (TSCM, TCM, TEM, TE)", "type": "cell-based", "settings": "pre-treatment prior to transfection; day 15; different donors; hydrochloride", "procedure": "as §5, §4"}, "[8]": {"tested_on": "human primary CD8+ T cells", "experiment": "T cell activation and cytokine expression after 24 h WT1 peptide pulse (flow cytometry)", "type": "cell-based", "settings": "day 15 cells pulsed 24 h with WT1 peptide", "procedure": "The cGAS-STING pathway is crucial in detecting and neutralizing genotoxic stress. It is a main component of innate immune system that can trigger inflammation in response to cytosolic DNA detection. […] Harvested T cells from inhibitor treated and control groups were pulsed for 24 h with indicated concentrations of a specific peptide (WT1), which binds to the engineered TCR. […] Another major concern is the exhaustion of the engineered T cell cultures. To measure levels of T cell exhaustion, the expression of exhaustion markers, such as Tim3 and PD-1, was evaluated.\nas §5"}, "[9]": {"tested_on": "human primary CD8+ T cells", "experiment": "CFSE proliferation analysis, 72 h co-culture with WT1 peptide", "type": "cell-based", "settings": "day 15 cells, WT1 peptide 72 h", "procedure": "We next investigated proliferation of T cell after treatment with BX795. The final T cell product obtained from BX795 pre-treated or untreated groups were labeled with CFSE far-red, and co-cultured with WT1 peptide at the indicated concentrations for 72 h. […] T cells treated with higher concentration of WT1 peptide achieved high (˜60%) proliferation rates, implying the strong and antigen specific proliferation of the final T cell product. Finally, we compared T cells isolated from BX795 pre-treated as well as untreated control cultures in a target cell killing assay. Target cells T2 (T) were labeled with CFSE-far red, and then pulsed with 20 uM WT1 peptide before co-incubation with our final T cell product (E) at a ratio dependent manner. […] Of note, compared with the CTLs raised from conventional vaccine strategies, our T cells achieved high killing efficiency with much lower E:T ratio [19, 20], outlining the potential advantage of antigen-specific tumor cell killing of our TCR engineered T cells.\nas §5, with “For proliferation and cell killing assay, data were corrected by a negative control or target cell-only control.” left out"}, "TBK1 [10]": {"tested_on": "TBK1", "settings": "previous report [9]; cited from earlier work"}, "[11]": {"settings": "BX795-M (mid dosage 2.5 uM), day 15"}},
  "note": "“Also recorded” adds a separate entry of the source. Structures can show the parent of a compound that is named as a salt.",
  "data": [
    {"smiles": "CC(C)c1ccc2oc3nc(N)c(C(=O)O)cc3c(=O)c2c1", "note": "[Aml, 2-amino-5-oxo-7-propan-2-ylchromeno[2,3-b]pyridine-3-carboxylic acid]", "values": [
      {"measurement": "culture viability improvement compared to the untreated control group (CTR)", "setting": "[1]; 25 uM", "value": "about 2 fold"},
      {"measurement": "cell expansion of final T cell product", "setting": "[2]; 25 uM pre-treatment", "value": 14.5, "unit": "fold"},
      {"measurement": "average increase in TECs compared to the control group", "setting": "[3]; 25 uM pre-treatment", "value": 267.0, "unit": "%"},
      {"measurement": "TEC number", "setting": "[3]; 25 uM pre-treatment", "value": 14.7, "unit": "million"}
    ]},
    {"smiles": "O=C(NCCCNc1nc(Nc2cccc(NC(=O)N3CCCC3)c2)ncc1I)c1cccs1", "note": "[BX795, N-[3-[[5-iodo-4-[[3-[(2-thienylcarbonyl)amino]propyl]amino]-2-pyrimidinyl]amino]phenyl]-1- Pyrrolidinecarboxamide hydrochloride]", "values": [
      {"measurement": "culture viability improvement compared to the untreated control group (CTR)", "setting": "[1]; 5 uM", "value": "about 2 fold"},
      {"measurement": "% viability", "setting": "[1]; 48 h post transfection, same donor as FIG. 8A (FIG. 8B)", "value": "higher % viability"},
      {"measurement": "effectiveness in improving culture viability and growth among tested inhibitors", "setting": "[1]; at 2.5 uM and 5 uM", "value": "most effective"},
      {"measurement": "cell expansion of final T cell product", "setting": "[2]; 5 uM pre-treatment", "value": 20.3, "unit": "fold"},
      {"measurement": "T cell expansion rate", "setting": "[2]; day 15, same donor as FIG. 8A (FIG. 8C)", "value": "increased T cell expansion rate"},
      {"measurement": "inhibitor performance by electroporation pulse code", "setting": "[2]; pulse code EH115 vs other pulse codes", "value": "performs better in EH115 groups"},
      {"measurement": "average increase in TECs compared to the control group", "setting": "[3]; 2.5 uM pre-treatment", "value": 303.4, "unit": "%"},
      {"measurement": "TEC number", "setting": "[3]; 2.5 uM pre-treatment", "value": 21.1, "unit": "million"},
      {"measurement": "TEC numbers", "setting": "[3]; day 15, same donor as FIG. 8A", "value": "improved TEC numbers"},
      {"measurement": "improvement in TEC compared to the control group", "setting": "[3]; mid or high concentrations (2.5 uM and 5 um), statistically significant", "value": "more than 3 fold"},
      {"measurement": "exogenous TCR expression (knock-in) over the culture process vs control group", "setting": "[4]; 2.5 uM pre-treated, day 4 to day 15 (FIG. 14B, 14C), hydrochloride", "value": "increases exogenous TCR expression; also recorded: enhances cell editing efficiency (knock-in)"},
      {"measurement": "knock-out efficiency in final cell product", "setting": "[4]; BX795-H (high dosage 5 uM), day 15", "value": 83.5, "unit": "%"},
      {"measurement": "knock-in ratio in final cell product", "setting": "[4]; [11]", "value": 61, "unit": "%"},
      {"measurement": "knock-out efficiency in final cell product", "setting": "[4]; [11]", "value": 86.7, "unit": "%"},
      {"measurement": "KI/KO ratio", "setting": "[4]; day 15, same donor as FIG. 8A", "value": "equal or better KI/KO ratio"},
      {"measurement": "phosphorylation of IRF3 post transfection", "setting": "IRF3", "value": "attenuated phosphorylation of IRF3"},
      {"measurement": "TBK1 phosphorylation", "setting": "TBK1 [5]", "value": "not attenuated and was actually enhanced"},
      {"measurement": "levels of type 1 interferons (IFNa, IFNB)", "setting": "[6]; BX795 removed prior to transfection", "value": "did not show a significant decrease"},
      {"measurement": "downstream cytokine expression (IFNa, IFNB, IL-6)", "setting": "[6]; pre-treatment, 6 h post transfection (FIG. 8F)", "value": "reduced"},
      {"measurement": "cGAS/STING pathway activation", "setting": "cGAS-STING pathway", "value": "considerable reduction in cGAS/STING pathway activation; also recorded: attenuates T cell cGAS-STING pathway"},
      {"measurement": "T cell phenotype of final T cell product vs untreated control", "setting": "[7]", "value": "no impact on the final T cell product phenotype"},
      {"measurement": "activation profile (CD137, IFNg, TNFa, Granzyme B expression) vs untreated control", "setting": "[8]", "value": "comparable activation profile"},
      {"measurement": "T cell proliferation in response to antigen specific stimulation vs untreated", "setting": "[9]", "value": "comparable"},
      {"measurement": "enhancement in TBK1 phosphorylation", "setting": "TBK1 [10]", "value": 2, "unit": "fold"}
    ]},
    {"smiles": "O=C(NCCCNc1nc(Nc2cccc(CN3CCOCC3)c2)ncc1C1CC1)C1CCC1", "note": "[MRT, N-[3-[[5-cyclopropyl-2-[3-(morpholin-4-ylmethyl)anilino]pyrimidin-4-yl]amino]propyl] cyclobutanecarboxamide]", "values": [
      {"measurement": "culture viability improvement compared to the untreated control group (CTR)", "setting": "[1]; 2.5 uM", "value": "about 2 fold"},
      {"measurement": "cell expansion of final T cell product", "setting": "[2]; 5 uM pre-treatment", "value": 17.2, "unit": "fold"},
      {"measurement": "average increase in TECs compared to the control group", "setting": "[3]; 5 uM pre-treatment", "value": 180, "unit": "%"},
      {"measurement": "TEC number", "setting": "[3]; 5 uM pre-treatment", "value": 17.4, "unit": "million"}
    ]}
  ]
}
